The NIST ThermoML archive (doi:10.1016/j.jct.2004.10.011)

Experiment: xn = mol fraction of the nth substance listed
Settings: Liquid, Vibrating tube method

CCC(=O)c1ccccc1 [ethyl phenyl ketone] + Cc1ccccc1
mass density [kg/m3]
Settings	x2 = 0	x2 = 0.1048	x2 = 0.2025	x2 = 0.3006	x2 = 0.3991	x2 = 0.4998	x2 = 0.6004	x2 = 0.7036	x2 = 0.8028	x2 = 0.902
318.15 K, 100 kPa	988.3	976.2	965	952.8	940	926.14	911.27	895.5	879.2	861.9
318.15 K, 2130 kPa	989.6	977.6	966.4	954.3	941.4	927.61	912.78	897	880.8	863.6
318.15 K, 4150 kPa	990.9	978.9	967.7	955.6	942.8	929.03	914.26	898.5	882.4	865.2
318.15 K, 6180 kPa	992.1	980.1	969	956.9	944.1	930.44	915.7	900	883.9	866.8
318.15 K, 8210 kPa	993.3	981.4	970.2	958.2	945.5	931.83	917.14	901.5	885.4	868.4
318.15 K, 10230 kPa	994.6	982.7	971.5	959.5	946.8	933.2	918.57	903	886.9	870
318.15 K, 11250 kPa	995.2	983.3	972.1	960.1	947.5	933.86	919.25	903.7	887.7	870.7
318.15 K, 12260 kPa	995.8	983.9	972.8	960.8	948.1	934.53	919.93	904.4	888.4	871.5
318.15 K, 14290 kPa	997	985.1	974	962	949.4	935.85	921.32	905.8	889.8	873
318.15 K, 16310 kPa	998.1	986.3	975.2	963.3	950.7	937.19	922.68	907.2	891.3	874.5
318.15 K, 18340 kPa	999.3	987.5	976.4	964.5	952	938.52	924.03	908.6	892.7	876
318.15 K, 20370 kPa	1000.4	988.7	977.6	965.7	953.2	939.75	925.33	909.9	894.1	877.4
318.15 K, 22390 kPa	1001.6	989.9	978.8	967	954.5	941.04	926.66	911.2	895.5	878.9
318.15 K, 24420 kPa	1002.7	991	980	968.1	955.7	942.28	927.93	912.5	896.8	880.3
318.15 K, 26450 kPa	1003.8	992.1	981.1	969.3	956.8	943.5	929.18	913.8	898.2	881.6
318.15 K, 28470 kPa	1004.9	993.3	982.2	970.5	958	944.7	930.43	915.1	899.5	883
318.15 K, 29490 kPa	1005.5	993.8	982.8	971.1	958.6	945.34	931.09	915.7	900.1	883.7
318.15 K, 30500 kPa	1006	994.4	983.4	971.6	959.2	945.93	931.69	916.4	900.8	884.3
318.15 K, 32530 kPa	1007.1	995.5	984.5	972.8	960.4	947.12	932.92	917.6	902.1	885.7
318.15 K, 34550 kPa	1008.2	996.6	985.6	973.9	961.5	948.29	934.11	918.8	903.3	887
318.15 K, 36580 kPa	1009.2	997.7	986.7	975	962.7	949.45	935.3	920	904.6	888.3
318.15 K, 38600 kPa	1010.3	998.7	987.8	976.1	963.7	950.58	936.48	921.2	905.8	889.5
318.15 K, 39620 kPa	1010.8	999.3	988.3	976.6	964.3	951.19	937.08	921.9	906.4	890.2
328.15 K, 100 kPa	979.6	967.8	956.5	944.4	931.4	917.54	902.56	886.7	870.2	852.8
328.15 K, 2130 kPa	981.1	969.1	957.8	945.7	932.8	918.96	904.06	888.3	871.8	854.5
328.15 K, 4150 kPa	982.4	970.5	959.2	947.1	934.3	920.45	905.6	889.9	873.5	856.2
328.15 K, 6180 kPa	983.7	971.8	960.5	948.5	935.7	921.95	907.14	891.5	875.1	857.9
328.15 K, 8210 kPa	985	973.1	961.8	949.9	937.1	923.37	908.63	893	876.7	859.6
328.15 K, 10230 kPa	986.2	974.5	963.2	951.2	938.5	924.82	910.11	894.5	878.3	861.2
328.15 K, 11250 kPa	986.9	975.1	963.8	951.9	939.2	925.52	910.85	895.3	879	862
328.15 K, 12260 kPa	987.5	975.7	964.5	952.5	939.9	926.2	911.57	896	879.8	862.8
328.15 K, 14290 kPa	988.7	977	965.8	953.9	941.2	927.61	913.02	897.5	881.4	864.5
328.15 K, 16310 kPa	990	978.3	967.1	955.2	942.6	928.98	914.44	898.9	882.9	866
328.15 K, 18340 kPa	991.2	979.5	968.3	956.5	943.9	930.34	915.83	900.4	884.4	867.6
328.15 K, 20370 kPa	992.3	980.8	969.6	957.7	945.2	931.69	917.22	901.8	885.8	869.1
328.15 K, 22390 kPa	993.5	982	970.8	959	946.5	933.04	918.61	903.2	887.3	870.6
328.15 K, 24420 kPa	994.7	983.2	972	960.2	947.7	934.34	919.95	904.6	888.7	872
328.15 K, 26450 kPa	995.9	984.4	973.2	961.5	949	935.61	921.26	905.9	890.1	873.5
328.15 K, 28470 kPa	997.1	985.6	974.5	962.7	950.2	936.91	922.59	907.2	891.5	874.9
328.15 K, 29490 kPa	997.6	986.2	975	963.3	950.8	937.56	923.26	908	892.2	875.7
328.15 K, 30500 kPa	998.2	986.7	975.6	963.9	951.5	938.18	923.89	908.6	892.9	876.4
328.15 K, 32530 kPa	999.3	987.9	976.8	965.1	952.7	939.41	925.17	909.9	894.2	877.7
328.15 K, 34550 kPa	1000.4	989	978	966.2	953.9	940.65	926.43	911.2	895.6	879.1
328.15 K, 36580 kPa	1001.5	990.2	979.1	967.4	955.1	941.85	927.68	912.5	896.9	880.4
328.15 K, 38600 kPa	1002.6	991.3	980.3	968.6	956.2	943.07	928.95	913.7	898.2	881.8
328.15 K, 39620 kPa	1003.2	991.9	980.8	969.1	956.9	943.64	929.53	914.4	898.8	882.4
